This is an account of results in US9126999B2, “Tetrahydropyrazolopyrimidine compounds” (EISAI R&D MANAGEMENT CO., LTD., priority 2012, dated 2015).

pIC50: −log10 of the molar value.

The test system of one assay is T1, Human TLR7/8.
T1 construct: IC50; other: Hu PBMC; ligand RNA-Ig; analyte IP-10
Nature of the assay: Human PBMC cell-based assay, RNA-Ig (SL4-Ig) stimulus, cytokine ELISA. As to conditions: Hu PBMC; ligand RNA-Ig; analyte IP-10. In short, it runs like this:
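Ficoll-isolated human PBMC treated in triplicate with antagonist (final 0.1% DMSO), then stimulated with RNA-Ig (SL4-Ig) complex preincubated 15-30 min. Incubation 20 h at 37° C., 5% CO2; supernatant cytokines quantified by ELISA.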
Background: An ELISA detects its analyte on a solid surface through an enzyme-linked reagent.

The next assay addresses T2, Human TLR1/2 (Homo sapiens, UniProt O60603+Q15399).
T2 construct: endogenous in cells; host or cells: primary human PBMC from healthy donor blood
Nature of the assay: Human PBMC cell-based assay, Pam3CSK4 stimulus, IL-6 ELISA. As to conditions: Hu PBMC; ligand Pam3CSK4; analyte IL-6. The protocol:
Human peripheral blood mononuclear cells (PBMC) were isolated from freshly-drawn heparinized (10 USP units/ml, Hospira, Lakeforest, Ill.) healthy donor whole blood by density gradient (Histopaque® 1077, Sigma, Inc., St. Louis, Mo.). Briefly, 25 ml blood was diluted with 15 ml PBS (without Ca^2+, Mg^2+) in a 50 ml conical tube, and 12 ml Histopaque was underlaid using a spinal needle. Tubes were centrifuged for 45 minutes at 1200 rpm (350×g), and PBMC were collected from the buffy coat. Cells were then washed twice in PBS, and red blood cells were lysed by suspension in 5 ml ammonium chloride solution (1× Red Blood Cell Lysis Buffer, eBioscience) for 5 minutes at room temperature. […]
Antagonist compounds solubilized and serial diluted in 100% DMSO were added in triplicate to cells to yield a final concentration of 0.1% DMSO (v/v). […] Cell culture supernatants were collected, and levels of various human cytokines were assessed as indicated by standard ELISA procedure according to the manufacturer's recommended protocol (BD Biosciences, Inc., San Diego, Calif.).

T2 sequence (Q15399 25-786): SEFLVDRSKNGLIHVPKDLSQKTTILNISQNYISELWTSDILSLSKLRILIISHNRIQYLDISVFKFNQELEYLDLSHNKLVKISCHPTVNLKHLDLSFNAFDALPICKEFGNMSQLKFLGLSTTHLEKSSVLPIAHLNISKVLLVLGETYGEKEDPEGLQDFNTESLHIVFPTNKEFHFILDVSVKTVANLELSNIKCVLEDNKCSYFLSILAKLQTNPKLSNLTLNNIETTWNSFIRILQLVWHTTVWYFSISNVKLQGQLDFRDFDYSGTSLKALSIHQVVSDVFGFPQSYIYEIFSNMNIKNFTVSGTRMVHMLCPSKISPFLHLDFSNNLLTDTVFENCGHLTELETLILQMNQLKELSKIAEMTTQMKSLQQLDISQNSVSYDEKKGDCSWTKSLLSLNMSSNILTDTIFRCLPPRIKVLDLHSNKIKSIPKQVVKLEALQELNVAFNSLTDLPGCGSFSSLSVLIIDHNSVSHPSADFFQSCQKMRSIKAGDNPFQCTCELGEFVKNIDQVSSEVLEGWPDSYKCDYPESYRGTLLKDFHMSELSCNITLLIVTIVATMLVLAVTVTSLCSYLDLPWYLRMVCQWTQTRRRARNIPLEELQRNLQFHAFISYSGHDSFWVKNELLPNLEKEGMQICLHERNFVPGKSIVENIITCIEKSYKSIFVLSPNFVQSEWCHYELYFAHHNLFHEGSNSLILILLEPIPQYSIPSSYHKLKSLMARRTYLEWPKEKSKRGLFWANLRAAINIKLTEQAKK
T2 sequence (O60603 19-784 limits assumed): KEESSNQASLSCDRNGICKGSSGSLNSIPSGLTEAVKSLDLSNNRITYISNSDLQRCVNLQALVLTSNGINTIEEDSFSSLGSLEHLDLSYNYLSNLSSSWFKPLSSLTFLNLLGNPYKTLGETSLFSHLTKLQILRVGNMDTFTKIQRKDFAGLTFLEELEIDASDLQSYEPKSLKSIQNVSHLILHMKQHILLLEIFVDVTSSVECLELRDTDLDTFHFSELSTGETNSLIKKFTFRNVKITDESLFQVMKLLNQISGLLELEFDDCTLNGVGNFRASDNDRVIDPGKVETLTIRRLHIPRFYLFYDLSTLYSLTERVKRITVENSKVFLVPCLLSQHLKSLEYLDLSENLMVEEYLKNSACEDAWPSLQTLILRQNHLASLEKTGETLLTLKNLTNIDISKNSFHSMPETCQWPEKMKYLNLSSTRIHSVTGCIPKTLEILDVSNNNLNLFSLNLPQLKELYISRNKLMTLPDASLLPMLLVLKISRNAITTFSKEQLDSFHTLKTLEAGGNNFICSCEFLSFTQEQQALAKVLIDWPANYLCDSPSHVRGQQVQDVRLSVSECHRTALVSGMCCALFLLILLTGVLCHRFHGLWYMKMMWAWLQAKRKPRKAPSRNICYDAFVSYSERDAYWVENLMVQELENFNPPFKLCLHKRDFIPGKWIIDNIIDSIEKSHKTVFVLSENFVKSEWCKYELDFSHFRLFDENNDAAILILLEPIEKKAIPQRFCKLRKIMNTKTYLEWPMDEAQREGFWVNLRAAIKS

Consider `COc1ccc([C@@H]2C[C@H](C(F)(F)F)n3nc(-c4ccc(C(=O)N5CCNCC5)cc4)cc3N2)cc1OC` [ER-892887, (4-((5S,7R)-5-(3,4-dimethoxyphenyl)-7-(trifluoromethyl)-4,5,6,7-tetrahydropyrazolo[1,5-a]pyrimidin-2-yl)phenyl)(piperazin-1-yl)methanone], for which the pIC50 (as a rule, the negative decadic logarithm of the IC50, by convention in mol/L) in the assay with Human TLR7/8 was 7.35; at Human TLR1/2, below 5.00.
